Laboratory results published in patent US12016899B2, “Compositions comprising Sel1-derived peptides and methods of treatment/prevention of excess oxalate levels and associated conditions/diseases therewith” (The University of Chicago, priority 2018, dated 2024).
“Also recorded” adds a separate entry of the source. Primed or numbered codes have the meaning given here. Where no end group is shown, it is not given here. [ ]: non-standard residue; d: D form. PEG6′ = Peg: PEG6 in place of glycine

How the values were obtained:
[1] = test system: human sigmoid colon organoid; assay: oxalate transport by human sigmoid colon organoid; assay type: cell-based
Protocol: (§1) Although the transformed C2 cells resemble the native epithelium, they don't fully recapitulate the in vivo physiological responses. Primary stem-cell derived intestinal organoids (Orgs) were recently established as an ex vivo model of the intestinal epithelium, and they mimic the full spectrum of physiological responses in vivo. Therefore, experiments were conducted during development of embodiments herein to confirm the C2 findings in colonic organoids.
(§2) To recapitulate the findings in vivo, primary stem-cell derived intestinal organoids (Org) were used which have been established as an ex vivo model of the intestinal epithelium with a full spectrum of physiological responses found in vivo (Ref. 35; incorporated by reference in its entirety). A human sigmoid colonic Org (from a healthy individual) was grown and maintained as previously reported (Ref. 34; incorporated by reference in its entirety). Org cells were plated onto collagen-coated transwell filters and formed monolayers. Monolayer confluency and differentiation was confirmed by transepithelial electrical resistance measurements (Ref. 34; incorporated by reference in its entirety).

[2] = test system: human intestinal Caco2-BBE (C2) cells; assay: 14C-oxalate influx (oxalate transport) by Caco2-BBE (C2) cells; assay type: cell-based; conditions: for effect of trace element added to P8 or P9 on oxalate transport, in words: C2 cells, versus peptide alone
Protocol: Toward this end, Of culture conditioned medium (CM) was prepared as recently reported (Ref. 4; herein incorporated by reference in its entirety) and human intestinal Caco2-BBE (C2) cells were used to evaluate the effects of Of CM on intestinal oxalate transport. Apical oxalate uptake by C2 cells was measured by imposing an outward Cl gradient by removing extracellular Cl [Cli>Clo] (Refs. 3, 4, 14; incorporated by reference in their entireties) and measuring DIDS (anion exchange inhibitor)-sensitive influx of 14C-oxalate in exchange for intracellular Cl [i.e. apical Cl-oxalate exchange activity, ≥49% of which is mediated by the oxalate transporter SLC26A6 (A6) in C2 cells (4, 12))].
The inventors sought to identify trace elements to better stimulate oxalate transport by facilitating the binding of P8 and/or P9 to a cell surface receptor. The inventors analyzed combinations of P8 and P9 alone or with aluminum, zinc, or magnesium by measuring C14 oxalate transport in C2 cells.

[3] = test system: human distal colon organoid; assay: oxalate transport by human distal colon organoid; assay type: cell-based
Protocol: as §1, §2

[4] = test system: human intestinal Caco2-BBE (C2) cells; conditions: cited from earlier work; for stimulation of oxalate transport by cells (Sel1 proteins), in words: PCT/US18/14494
[5] = test system: human ileum organoid; assay: oxalate transport by human ileum organoid; assay type: cell-based; conditions: 500 μM DIDS; ileum Org

AKAQYGLGILYAKGQGVAPDQEKALILYRMAATQG-Am (AKAQYGLGILYAKGQGVAPDQEKALILYRMAATQG-NH2) [Peptide P9-Am]
stimulation of oxalate transport by sigmoid colon organoid, in words [1]: significantly stimulate | stimulation of oxalate transport (14C-oxalate influx) by C2 cells, in words ([2]; Caco2-BBE cells, listed as P9 with C-terminal amidation): significantly stimulate | stimulation of oxalate transport by distal colon organoid, in words [3]: significantly stimulate

Ac-DAQYMLGAMSVEGIGLPKDSQVALTWLSKAAAQGD [Peptide P8-Ac]
stimulation of oxalate transport (14C-oxalate influx) by C2 cells, in words ([2]; Caco2-BBE cells, listed as P8 with N-terminal acetylation): significantly stimulate

AKAQYGLGILYAKGQ(d-alanine)VAPDQEKALILYRMAATQG (AKAQYGLGILYAKGQ[dA]VAPDQEKALILYRMAATQG) [Peptide P9-Daa]
stimulation of oxalate transport by sigmoid colon organoid, in words [1]: significantly stimulate | stimulation of oxalate transport (14C-oxalate influx) by C2 cells, in words ([2]; Caco2-BBE cells, listed as P9 with G16 replaced with D-alanine): similarly stimulated; also recorded: significantly stimulate | stimulation of oxalate transport by distal colon organoid, in words [3]: significantly stimulate

[Cl-].[Cl-].[Zn+2] [zinc chloride]
effect of trace element added to P8 or P9 on oxalate transport, in words [2]: not

Ac-AKAQYGLGILYAKGQGVAPDQEKALILYRMAATQG [Peptide P9-Ac]
stimulation of oxalate transport by sigmoid colon organoid, in words [1]: significantly stimulate | stimulation of oxalate transport (14C-oxalate influx) by C2 cells, in words ([2]; Caco2-BBE cells, listed as P9 with N-terminal acetylation): significantly stimulate | stimulation of oxalate transport by distal colon organoid, in words [3]: significantly stimulate

DAQYMLGAMSVEGIGLPKDSQVALTWLSKAAAQGD-Am (DAQYMLGAMSVEGIGLPKDSQVALTWLSKAAAQGD-NH2) [Peptide P8-Am]
stimulation of oxalate transport (14C-oxalate influx) by C2 cells, in words ([2]; Caco2-BBE cells, listed as P8 with C-terminal amidation): significantly stimulate

[Al] [aluminum]
effect of trace element added to P8 or P9 on oxalate transport, in words [2]: did not result in increased oxalate transport

DAQYMLA(Peg)MSVE(Peg)I(Peg)LPKDSQVALTWLSKAAAQ(Peg)D (DAQYMLA[PEG6′]MSVE[PEG6′]I[PEG6′]LPKDSQVALTWLSKAAAQ[PEG6′]D) [Peptide P8-Peg]
stimulation of oxalate transport (14C-oxalate influx) by C2 cells, in words ([2]; Caco2-BBE cells, listed as P8 with all glycines replaced with PEG6): similarly stimulated; also recorded: significantly stimulate

DAQYMLGAMSVEGI(d-alanine)LPKDSQVALTWLSKAAAQGD (DAQYMLGAMSVEGI[dA]LPKDSQVALTWLSKAAAQGD) [Peptide P8-Daa]
stimulation of oxalate transport (14C-oxalate influx) by C2 cells, in words ([2]; Caco2-BBE cells, listed as P8 with G15 replaced with D-alanine): similarly stimulated; also recorded: significantly stimulate

AKAQY(Peg)L(Peg)ILYAK(Peg)Q(Peg)VAPDQEKALILYRMAATQ(Peg) (AKAQY[PEG6′]L[PEG6′]ILYAK[PEG6′]Q[PEG6′]VAPDQEKALILYRMAATQ[PEG6′]) [Peptide P9-Peg]
stimulation of oxalate transport (14C-oxalate influx) by C2 cells, in words ([2]; Caco2-BBE cells, listed as P9 with all glycines replaced with PEG6): similarly stimulated; also recorded: significantly stimulate

ESQNNLGALYNDGNGVDRDYQEAVFWYRKSALQGD [Peptide P6]
stimulation of oxalate transport (14C-oxalate influx) by C2 cells, in words ([2]; Caco2-BBE cells): no effects

QSQYNLGIAYEEGWGAEKNPENAVFWYRKAAEQGH [Peptide P4]
stimulation of oxalate transport (14C-oxalate influx) by C2 cells ([2]; Caco2-BBE cells): 1.5 fold

ARAQFNLGKTFYIGAGINKNTDKAVYWFIKAANQG [Peptide P5]
stimulation of oxalate transport (14C-oxalate influx) by C2 cells, in words ([2]; Caco2-BBE cells): no effects

O=S(=O)(NCCNC/C=C/c1ccc(Br)cc1)c1cccc2cnccc12 [Peptide H89, H89, reference compound]
effect of pretreatment on CM-induced oxalate transport ([4]; PKA inhibitor pretreatment, Ref. 4): completely blocked

O=S(=O)(O)c1cc(N=C=S)ccc1C=Cc1ccc(N=C=S)cc1S(=O)(=O)O [DIDS, reference compound]
inhibition of oxalate transport [5]: ~80% | inhibition of 14C-oxalate influx ([1]; 100 μM DIDS, sigmoid colonic Org): ~70%

B1: 301: Sel1 protein 301 (54 kDa) of Oxalobacter formigenes (protein)
chain: MSSVIADSQQPAVSEENANKIILDEEKAVIQCNERYKTENDEKGDEETVSWCRKAAKSGNAEAQYLFGMLVYDGRGVQQDNCVAMLWWMKAAEQNHAKALVMLGNLHRKGQCIAENYPKAIAYWKRAAVQNNVWAYHNLGTAYYDGIGVDKNPHEAVRWWKKAAELGFPESQNNLGALYNDGNGVDRDYQEAVFWYRKSALQGDELGQYNLGVAYYYGRGIKKDFSEAVSWYKKSAEQDYAQAQHNLGVTYYEGEGIKKDYAKAVYWWKKAAEQGIPQSQYNLGIAYEEGWGAEKNPENAVFWYRKAAEQGHADAQNRLGIAYRYGTGVRKNPALSVKWLEKAAKQGLARAQFNLGKTFYIGAGINKNTDKAVYWFIKAANQGFTEAQAYIGMIYFKGKYVAKNEKKGFYWLKKAAEKDSAKAQAFLGALYIAGNEVKPNIKEGVALTKKAALQGNYEAQTLLGFCYENGLEVKKDLIAAYALYLSASPHFDFAEKARLDLERKLSEQEIAKAISVNTAKLFE
stimulation of oxalate transport by cells (Sel1 proteins), in words [4]: significantly stimulating; also recorded: most potent stimulators

B2: 318: Sel1 protein 318 (52 kDa) of Oxalobacter formigenes (protein)
chain: MKRRVLYGVLFAVLAGCSAGALASVSGLSDGLAQLERRQFESAYATLMPEAEKGNPRAALEVGKLLLTGRGVAKDEAAAVKWLLVAADSGNRDAQYMLGAMSVEGIGLPKDSQVALTWLSKAAAQGDARAKTALGILMQSAGPGSQHTEQAARWFERAAASGEPEAQRRWALMLASGRGVAKNEGEALKWFKKAAVAGDVEAQRNLGIMLSTGKGVTGGKPDFAEAARWYGLAAKKGDAKAQYGLGILYAKGQGVAPDQEKALILYRMAATQGLATAEYAVGLAYAYGRGTAQNDVKAADWFEAAAQQGVVRAQYNLALMLEAGRGRPVDTVAASKWFLMAAEKGLREAQYNMGYHYAEGKGVPRDQGKAVFWYEKAAAAGDVKAQYNLGMLYLNGVNGKADDEKAAFFYRMAAGAGYGPAMYRLAVLYEEGRGVKQSYQLAGEWYERADLAAKVKIDEAMKKNPHPFVQRTLQVPDDLNQSSDKLAGH
stimulation of oxalate transport by cells (Sel1 proteins), in words [4]: significantly stimulating; also recorded: most potent stimulators
